Key:
human TLR7 = human TLR7 (Homo sapiens (Human), UniProt Q9NYK1); assay: HEK293-Blue-hTLR-7 cells assay; type: cell-based; conditions: HEK293-Blue-hTLR7 cells, R848 stimulation, 20 hrs, SEAP reporter; read-out: HEK/hTLR7 IC50
Source text: HEK293-BLUE-hTLR-7 CELLS ASSAY:
(§1) A stable HEK293-Blue-hTLR-7 cell line was purchased from InvivoGen (Cat. #: hkb-htlr7, San Diego, California, USA). These cells were originally designed for studying the stimulation of human TLR7 by monitoring the activation of NF-κB. A SEAP (secreted embryonic alkaline phosphatase) reporter gene was placed under the control of the IFN-β minimal promoter fused to five NF-κB and AP-1-binding sites. The SEAP was induced by activating NF-κB and AP-1 via stimulating HEK-Blue hTLR7 cells with TLR7 ligands. Therefore the reporter expression was declined by TLR7 antagonist under the stimulation of a ligand, such as R848 (Resiquimod), for incubation of 20 hrs. The cell culture supernatant SEAP reporter activity was determined using QUANTI-Blue™ kit (Cat. #: rep-qb1, Invivogen, San Diego, Ca, USA) at a wavelength of 640 nm, a detection medium that turns purple or blue in the presence of alkaline phosphatase.
(§2) HEK293-Blue-hTLR7 cells were incubated at a density of 250,000˜450,000 cells/mL in a volume of 170 μL in a 96-well plate in Dulbecco's Modified Eagle's medium (DMEM) containing 4.5 g/L glucose, 50 U/mL penicillin, […], […], 2 mM L-glutamine, 10% (v/v) heat-inactivated fetal bovine serum with addition of 20 μL test compound in a serial dilution in the presence of final DMSO at 1% and 10 μL of 20 μM R848 in above DMEM, perform incubation under 37° C. in a CO2 incubator for 20 hrs. Then 20 μL of the supernatant from each well was incubated with 180 μL Quanti-blue substrate solution at 37° C. for 2 hrs and the absorbance was read at 620-655 nm using a spectrophotometer. The signaling pathway that TLR7 activation leads to downstream NF-κB activation has been widely accepted, and therefore similar reporter assay was modified for evaluating TLR7 antagonist.

[1] = Human microsomal stability assay; type: in vitro ADME; conditions: human liver microsomes, 1 μM test compound, 37° C., pH 7.4
Experimental: Human Microsomal Stability Assay
Human liver microsomes (Cat. NO.: 452117, Corning, USA) were preincubated with test compound for 10 minutes at 37° C. in 100 mM potassium phosphate buffer, pH 7.4. The reactions were initiated by adding NADPH regenerating system. The final incubation mixtures contained 1 μM test compound, 0.5 mg/mL liver microsomal protein, 1 mM MgCl2, 1 mM NADP, 1 unit/mL isocitric dehydrogenase and 6 mM isocitric acid in 100 mM potassium phosphate buffer, pH 7.4. After incubation times of 0, 3, 6, 9, 15 and 30 minutes at 37° C., 300 μL of cold ACN (including internal standard) was added to 100 μL incubation mixture to terminate the reaction. Following precipitation and centrifugation, 100 μL supernatant will be taken out and added 300 μL water. The amount of compound remaining in the samples was determined by LC-MS/MS. Controls of no NADPH regenerating system at zero and 30 minutes were also prepared and analyzed. The results were categorized as: low (<7.0 mL/min/kg), medium (7.0-16.2 mL/min/kg) and high (16.2-23.2 mL/min/kg).

human TLR9 = human TLR9 (Homo sapiens (Human), UniProt Q9NR96); assay: HEK293-Blue-hTLR-9 cells assay; type: cell-based; conditions: HEK293-Blue-hTLR9 cells, ODN2006 stimulation, 20 hrs, SEAP reporter; read-out: HEK/hTLR9 IC50
Chain of human TLR9 (Q9NR96 26-1032): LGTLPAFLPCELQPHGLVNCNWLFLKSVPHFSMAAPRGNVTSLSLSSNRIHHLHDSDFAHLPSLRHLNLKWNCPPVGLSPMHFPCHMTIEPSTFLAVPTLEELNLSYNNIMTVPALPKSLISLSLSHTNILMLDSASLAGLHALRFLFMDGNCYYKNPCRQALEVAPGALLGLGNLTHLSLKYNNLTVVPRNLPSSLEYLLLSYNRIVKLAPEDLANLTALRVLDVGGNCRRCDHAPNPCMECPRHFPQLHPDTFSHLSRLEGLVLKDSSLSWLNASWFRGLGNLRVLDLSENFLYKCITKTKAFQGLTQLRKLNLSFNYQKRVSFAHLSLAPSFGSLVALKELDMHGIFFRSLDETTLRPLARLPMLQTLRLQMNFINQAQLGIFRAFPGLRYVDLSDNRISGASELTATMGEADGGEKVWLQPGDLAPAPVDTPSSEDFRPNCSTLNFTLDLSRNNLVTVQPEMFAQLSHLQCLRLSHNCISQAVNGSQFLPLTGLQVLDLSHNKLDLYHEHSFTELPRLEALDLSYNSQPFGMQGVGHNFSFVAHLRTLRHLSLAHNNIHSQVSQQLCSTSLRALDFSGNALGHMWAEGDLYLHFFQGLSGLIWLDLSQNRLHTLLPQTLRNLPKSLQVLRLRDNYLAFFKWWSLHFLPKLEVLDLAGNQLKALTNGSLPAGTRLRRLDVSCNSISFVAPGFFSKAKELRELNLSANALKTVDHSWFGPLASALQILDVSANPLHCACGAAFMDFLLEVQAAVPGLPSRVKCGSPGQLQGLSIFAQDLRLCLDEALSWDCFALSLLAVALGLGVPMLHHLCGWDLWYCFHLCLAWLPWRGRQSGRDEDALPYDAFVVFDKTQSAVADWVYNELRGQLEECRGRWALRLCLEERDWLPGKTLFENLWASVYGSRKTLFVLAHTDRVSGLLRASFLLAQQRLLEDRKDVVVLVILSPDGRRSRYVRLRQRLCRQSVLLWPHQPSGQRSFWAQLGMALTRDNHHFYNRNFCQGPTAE
Source text: HEK293-Blue-hTLR-9 Cells Assay:
A stable HEK293-Blue-hTLR-9 cell line was purchased from InvivoGen (Cat. #: hkb-htlr9, San Diego, California, USA). These cells were originally designed for studying the stimulation of human TLR9 by monitoring the activation of NF-κB. A SEAP (secreted embryonic alkaline phosphatase) reporter gene was placed under the control of the IFN-β minimal promoter fused to five NF-κB and AP-1-binding sites. The SEAP was induced by activating NF-κB and AP-via stimulating HEK-Blue hTLR9 cells with TLR9 ligands. Therefore the reporter expression was declined by TLR9 antagonist under the stimulation of a ligand, such as ODN2006 (Cat. #: tlrl-2006-1, Invivogen, San Diego, California, USA), for incubation of 20 hrs. The cell culture supernatant SEAP reporter activity was determined using QUANTI-Blue™ kit (Cat. #: rep-qb1, Invivogen, San Diego, California, USA) at a wavelength of 640 nm, a detection medium that turns purple or blue in the presence of alkaline phosphatase.
as §2, with “HEK293-Blue-hTLR9 cells” for “HEK293-Blue-hTLR7 cells”, “μM ODN2006” for “μM R848”, “2 h” for “2 hrs”, “that TLR9” for “that TLR7”, “evaluating TLR9” for “evaluating TLR7”

human TLR8 = human TLR8 (Homo sapiens (Human), UniProt Q9NR97); assay: HEK293-Blue-hTLR-8 cells assay; type: cell-based; conditions: HEK293-Blue-hTLR8 cells, R848 stimulation, 20 hrs, SEAP reporter; read-out: HEK/hTLR8 IC50
Chain of human TLR8 (Q9NR97 27-1041): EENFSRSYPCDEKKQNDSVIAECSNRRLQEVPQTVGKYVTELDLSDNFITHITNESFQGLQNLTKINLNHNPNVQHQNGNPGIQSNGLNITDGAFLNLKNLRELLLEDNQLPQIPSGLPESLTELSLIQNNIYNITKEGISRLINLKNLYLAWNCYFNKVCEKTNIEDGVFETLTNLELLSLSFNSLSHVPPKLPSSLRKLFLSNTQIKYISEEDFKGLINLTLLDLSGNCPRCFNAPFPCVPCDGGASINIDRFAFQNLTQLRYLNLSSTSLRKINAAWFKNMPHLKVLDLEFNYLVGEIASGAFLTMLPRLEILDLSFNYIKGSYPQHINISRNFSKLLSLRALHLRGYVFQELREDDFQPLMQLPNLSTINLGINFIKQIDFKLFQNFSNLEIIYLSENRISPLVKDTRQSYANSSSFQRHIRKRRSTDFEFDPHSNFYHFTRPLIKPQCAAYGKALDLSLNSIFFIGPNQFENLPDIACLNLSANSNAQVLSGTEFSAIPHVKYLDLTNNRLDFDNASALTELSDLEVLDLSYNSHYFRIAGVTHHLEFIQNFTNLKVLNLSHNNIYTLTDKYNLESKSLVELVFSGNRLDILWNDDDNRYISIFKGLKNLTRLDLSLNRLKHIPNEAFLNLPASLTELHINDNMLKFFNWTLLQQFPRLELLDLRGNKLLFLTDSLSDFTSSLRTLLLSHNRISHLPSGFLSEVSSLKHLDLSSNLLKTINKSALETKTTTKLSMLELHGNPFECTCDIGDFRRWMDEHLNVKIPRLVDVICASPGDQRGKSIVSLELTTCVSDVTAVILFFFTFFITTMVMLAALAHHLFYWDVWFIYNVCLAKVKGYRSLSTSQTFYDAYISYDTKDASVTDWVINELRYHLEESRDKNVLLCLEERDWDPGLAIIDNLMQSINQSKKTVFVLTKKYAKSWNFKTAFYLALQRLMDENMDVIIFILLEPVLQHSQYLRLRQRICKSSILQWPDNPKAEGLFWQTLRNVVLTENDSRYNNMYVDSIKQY
Source text: HEK293-Blue-hTLR-8 Cells Assay:
as §1, with “HEK293-Blue-hTLR-8” for “HEK293-Blue-hTLR-7”, “hkb-htlr8,” for “hkb-htlr7,”, “TLR8” for “TLR7”, “hTLR8” for “hTLR7”, “R848,” for “R848 (Resiquimod),”, “rep-Qb1,” for “rep-qb1,”
HEK293-Blue-hTLR8 cells were incubated at a density of 250,000-450,000 cells/mL in a volume of 170 μL in a 96-well plate in Dulbecco's Modified Eagle's medium (DMEM) containing 4.5 g/L glucose, 50 U/mL penicillin, […], […], 2 mM L-glutamine, 10% (v/v) heat-inactivated fetal bovine serum with addition of 20 μL test compound in a serial dilution in the presence of final DMSO at 1% and 10 μL of 60 μM R848 in above DMEM, perform incubation under 37° C. in a CO2 incubator for 20 hrs. Then 20 μL of the supernatant from each well was incubated with 180 μL Quanti-blue substrate solution at 37° C. for […] and the absorbance was read at 620˜655 nm using a spectrophotometer. The signaling pathway that TLR8 activation leads to downstream NF-κB activation has been widely accepted, and therefore similar reporter assay was modified for evaluating TLR8 antagonist.

Chain of human TLR7 (Q9NYK1 27-1049): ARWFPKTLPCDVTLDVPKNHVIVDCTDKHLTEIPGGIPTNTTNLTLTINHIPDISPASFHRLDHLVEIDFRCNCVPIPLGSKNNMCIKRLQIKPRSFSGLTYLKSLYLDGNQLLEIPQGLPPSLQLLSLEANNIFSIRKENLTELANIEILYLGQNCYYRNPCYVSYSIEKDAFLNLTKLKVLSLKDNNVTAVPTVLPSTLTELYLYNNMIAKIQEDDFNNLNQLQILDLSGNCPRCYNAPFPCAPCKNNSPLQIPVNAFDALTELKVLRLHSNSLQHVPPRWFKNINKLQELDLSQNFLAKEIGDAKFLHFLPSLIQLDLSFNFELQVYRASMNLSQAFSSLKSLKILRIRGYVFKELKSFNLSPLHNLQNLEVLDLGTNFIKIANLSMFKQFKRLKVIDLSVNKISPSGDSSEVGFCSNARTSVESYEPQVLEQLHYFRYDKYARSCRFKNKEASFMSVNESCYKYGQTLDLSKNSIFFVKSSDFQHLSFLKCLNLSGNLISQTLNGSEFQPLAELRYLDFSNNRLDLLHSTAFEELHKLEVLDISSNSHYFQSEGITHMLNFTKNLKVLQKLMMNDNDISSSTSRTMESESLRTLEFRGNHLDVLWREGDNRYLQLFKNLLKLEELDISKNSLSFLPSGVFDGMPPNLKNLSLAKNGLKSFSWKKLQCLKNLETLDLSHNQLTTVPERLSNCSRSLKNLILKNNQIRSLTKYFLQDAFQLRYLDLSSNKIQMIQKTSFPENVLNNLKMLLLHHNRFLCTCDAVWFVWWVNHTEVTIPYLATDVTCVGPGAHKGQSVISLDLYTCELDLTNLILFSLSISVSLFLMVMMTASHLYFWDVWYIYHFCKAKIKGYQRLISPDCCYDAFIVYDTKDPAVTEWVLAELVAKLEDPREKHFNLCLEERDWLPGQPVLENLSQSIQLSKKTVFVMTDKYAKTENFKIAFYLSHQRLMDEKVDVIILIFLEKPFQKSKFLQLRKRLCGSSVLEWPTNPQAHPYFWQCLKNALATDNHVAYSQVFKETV

In the case of [2H]c1ccc2c(N3C[C@@H]4C[C@H](N5CCc6ncc(N7CCNCC7)nc6C5)CN4[C@H](C)C3)ccc(C#N)c2n1 [Example 24], the IC50 (human TLR7) is reported as 4.3 nM, the “CL (h)” value [1] is reported as 8.9 mL/min/kg and the IC50 (human TLR9) is reported as 95.2 nM. It also gave an IC50 (human TLR8) of 5.9 nM.

From patent US12486273B2 (Hoffmann-La Roche Inc., priority 2019, dated 2025)
